Assay results from patent US11154536B2, “Pyrazoline-derived compound and its use in a weekly dosage regime against inflammation and pain derived from degenerative joint disease in mammals” (ECUPHAR N.V., priority 2014, dated 2021).

Columns and labels:
[1] = test system: urate crystal induced acute arthritis in the stifle (femorotibial) joint; test: Example 1: reversible urate crystal acute arthritis model in dog, E-6087 p.o. 4 mg/kg on D0 and D12; assay type: in vivo
Excerpt: (§1) The experimental model used in both studies was the same and it consists in the induction of an acute arthritis through the inoculation of an urate crystal suspension in the stifle (femorotibial) joint of dogs. […] Partial or total inhibition of this reaction at a given time point after treatment administration is attributable to its pharmacological effect.
(§2) The reversible urate crystal arthritis model used in next examples has been previously described in the literature [Toutain P. L. et al. J. Vet. Pharmacol. Therap. 24, 43-55, 2001].
(§3) A sodium urate crystal suspension at a concentration of 10 mg·mL-1 was prepared as follows: • Uric acid sodium salt (Sigma) was weighed in a 100 mL graduated flask. • 0.9% NaCl solution was added to a final volume of 100 mL. • The suspension was mixed at room temperature by vortexing for approximately 5 min, by magnetic stirring for 5 min and was then sonicated for approximately 1 h. • The suspension was distributed in 1.5 mL vials and then autoclaved for 2 h at 120° C. • Finally the suspension was mixed by vortexing for 5 min, and sonicated for approximately 1 h.
(§4) The intra-articular injections were performed under general anaesthesia using Propovet multidose at a propofol dose of 6.5 mg.kg-1 by intravenous route without premedication. This induction medication was intended to result in a rapid onset anaesthesia with duration of about 10 minutes of unconsciousness and full recovery within approximately 30 minutes. For most of the dogs, Propovet multidose (half dose) was re-injected to maintain appropriate anaesthesia.
(§5) All urate crystal injections were introduced in the stifle (femorotibial) joint. The intra-articular injection was performed under aseptic conditions using a 30 mm long and 1 mm diameter sterile needle and a 2.5 mL syringe. The joint was checked for successful joint puncture, by synovial aspiration. One millilitre of urate crystal suspension was used for each intra-articular injection.
(§6) The duration of the induced inflammatory process was expected to be approximately 16 to 24 h and the average time of maximum lameness in untreated animals 2 to 3 hours after induction.
(§7) To assess the anti-inflammatory and analgesic effect of the test item, two clinical signs of arthritis were investigated: lameness and pain, respectively. Their intensity was determined using the following scoring systems:
This study was designed to determine whether the blood levels of E-6087 achieved after one single oral dose of E-6087 at 4 mg/kg in dog, do have some short and/or long-term antiinflammatory and analgesic effects. In addition, a second dose of E-6087 at 4 mg/kg was administered to evaluate the eventual effect derived from the accumulation of the molecule in blood.
The study was performed with seven male Beagle dogs randomly allocated to 3 groups.
During the study, the arthritis induction model was implemented on four occasions to each dog: • In dogs of Group I, on Days 0*, 7, 14** and 21. • In dogs of Group II, on Days 2**, 7, 14** and 21. • In dogs of Group III, on […].
(§8) According to the institutional ethics committee's recommendations, the first and third inoculations were done in the right stifle while the second and fourth inoculations were done in the left stifle. On each day of arthritis induction, the anti-inflammatory and analgesic efficacy of treatments was assessed at different time points (just before the inoculation, and 0.5, 1, 2, 3, 4, 6, 9 and 12 hours later). Two clinical signs of arthritis were assessed by using a scoring system at each time point: visual lameness (whilst standing and walking) and pain at (inoculated stifle) palpation. The median, minimal and maximal values for this parameter were determined for each group at each time point. Blood sampling was performed at different time points during the study in dogs of groups I and II in order to determine blood concentrations of E-6087.

[2] = Example 1: blood/plasma concentrations of E-6087 in treated dogs; assay type: in vivo, dog
Method: as §8

[3] = test system: naturally occurring osteoarthritis; test: Example 3: randomized, blinded multi-centre clinical trial in dogs with naturally occurring osteoarthritis (Clinical Sum Score); assay type: in vivo, dog; settings: loading dose 4 mg/kg then 2 mg/kg weekly; for P of reduction in CSS compared to the Placebo group: tablets
Method: One study (headed as example 3) has been performed to evaluate the efficacy of E-6087 in dogs with naturally occurring osteoarthritis under real field conditions. E-6087 was administered in tablets.
For a dog to be included in the study, the following criteria must be fulfilled: • 1. Owner's consent obtained prior to the start of any study activities. • 2. Age ≥12 months. • 3. Body weight ≥5 kg. • 4. Clinical signs of osteoarthritis for one (with the exception of the spine including spinal joints, cranium, and vertebral column) or more joints for at least 3 weeks. • 5. Confirmation by radiographic evidence of the presence of osteoarthritis in the dog. […] Minimum Clinical Sum Score (CSS) ≥6. If more than one joint was affected by OA, the most severely affected joint (with the exception of the spine) was assessed subsequently for efficacy.
Once included, dogs were randomly assigned to a treatment group. A practitioner was in charge of administering either a Placebo or E-6087 under two different dosage regimes to animals, while another one was in charge of blindly evaluating the progression of clinical signs during a 42-day follow-up.
A Clinical Sum Score (CSS) was used for the assessment of pain and lameness at several time points during the follow-up, including clinical assessments in this order for posture, lameness at walk, lameness at rot and pain at palpation/manipulation. The CSS was the sum of the individual scores.
This study was designed to evaluate the effectiveness of E-6087 under real field conditions. E-6087 was administered at a loading dose of 4 mg/kg followed by weekly maintenance doses of 2 mg/kg The study was designed as a controlled, randomized, blinded, multi-centre clinical trial.
A total of 60 osteoarthritic dogs were included in the E-6087 group and 60 dogs in the Placebo group. All dogs underwent a follow-up period of 42 days, with clinical evaluations of lameness and pain on days 0, 7, 14, 28 and 42. A Clinical Sum Score (CSS) was calculated for the lameness and pain parameters at each time point.

[4] = test system: urate crystal induced acute arthritis in the stifle (femorotibial) joint; test: Example 2: urate crystal acute arthritis model in dogs, loading dose plus weekly maintenance doses of E-6087; assay type: in vivo, dog
Excerpt: as §1, §2, §3, §4, §5, §6, §7
This study was designed to evaluate the effectiveness of two different treatment regimes for E-6087. In both cases it was administered a loading dose, followed by a weekly maintenance dose. […]
According to the institutional ethics committee's recommendations, the first and third inoculations were performed in the right stifle while the second inoculation was performed in the left stifle. On each day of arthritis induction, the anti-inflammatory and analgesic efficacy of treatments was assessed at different time points (just before the inoculation, and 0.5, 1, 2, 3, 4, 6, 9 and 12 hours later).
Two clinical signs of arthritis were assessed by using a scoring system at each time point: visual lameness (whilst standing and walking) and pain at (inoculated stifle) palpation. A combined visual lameness score, determined as the sum of the standing and walking lameness scores, was calculated and finally used for efficacy evaluation. The median, minimal and maximal values for this parameter were determined for each group at each time point. […]

[5] = induction on day D7 after the first 4 mg/kg p.o. dose
[6] = induction two hours after the first 4 mg/kg p.o. dose (Day 0)
[7] = inductions on D14 and D21, after the second 4 mg/kg dose on D12

With NS(=O)(=O)c1ccc(N2N=C(C(F)(F)F)CC2c2ccc(F)cc2F)cc1 (racemic) [E-6087] the “Adverse reactions related to the administration” value ([1]; 4 mg/kg p.o. on D0 and D12, throughout the 28-day study) was “No adverse reactions”, the “Persistence of anti-inflammatory/analgesic effect” value ([1]; after the second dose of 4 mg/kg (12 days after the first dose)) was “persisted at least during nine days” and the “Lameness assessment (control of induced lameness)” value (“Lameness assessment” below) [1, 5] was “slightly controlled”. The “Pain assessment (control of induced pain at palpation)” value (shortened to “Pain assessment”) [1, 5] was “slightly controlled”, the “Lameness assessment” value [1, 6] was “not controlled at all” and the “Pain assessment” value [1, 6] was “not controlled at all”. For the same compound, the “Lameness assessment” value [1, 7] was “absolutely controlled”, the “Pain assessment” value [1, 7] was “absolutely controlled” and the “Plasma levels after the second dose” value ([2]; 4 mg/kg p.o. on D0 and D12, blood samples of treated dogs) was “increase in plasma levels”. The “Blood levels 48 hours after administration” value ([2]; 4 mg/kg p.o., 48 hours after administration) was “significant blood levels”, the “P of reduction in CSS compared to the Placebo group” value ([3]; day 28, statistically significant) was under 0.05 and the “P of reduction in CSS compared to the Placebo group” value ([3]; day 42, highly significant) was under 0.01. The “Mean Clinical Sum Score (CSS)” value ([3]; dropped under the threshold between day 7 and day 14) was under 6, the “Inflammatory/painful reaction after arthritis induction” value (shortened to “Inflammatory/painful reaction”) ([4]; Group C, treatment regimen II (8 mg/kg loading, 4 mg/kg weekly), from Day 9 onwards) was “very mild reaction” and the “Inflammatory/painful reaction” value ([4]; Group C, treatment regimen II, induction on Day 0, two hours after the 8 mg/kg loading dose) was “severe inflammatory/painful reaction”. For the same compound, the “Inflammatory/painful reaction” value ([4]; Groups A and B, treatment regimen I (4 mg/kg Days 0 and 1, then 4 mg/kg weekly), inductions on Days 2, 4 and 9) was “mild inflammatory/painful reactions”, the “Inflammatory/painful reaction” value ([4]; Groups A and B, treatment regimen I, inductions on Days 14, 23 and 28) was “none (or very mild) reactions” and the “Adverse reactions related to the administration” value ([4]; Groups A, B and C, throughout the study) was “No adverse reactions”.
